Where a SMILES comes first, the peptide text is derived from it. Bridges are numbered along the chain shown (N, C = ends). [ ]: non-standard residue; d: D form. The star is where a group is joined. hPhe(3-Cl-4-CF3) = N[C@@H](CCc1ccc(C(F)(F)F)c(Cl)c1)C(=O)O; NPrPhe(4-CF3) = CCCN[C@@H](Cc1ccc(C(F)(F)F)cc1)C(=O)O; NEtPhe(4-Me) = CCN[C@@H](Cc1ccc(C)cc1)C(=O)O; NMeGly(cPent) = CN[C@H](C(=O)O)C1CCCC1; Pro(4,4-F2) = O=C(O)[C@@H]1CC(F)(F)CN1; Hyp = O=C(O)[C@@H]1C[C@@H](O)CN1; NMeD = CN[C@@H](CC(=O)O)C(=O)O; NMeL = CN[C@@H](CC(C)C)C(=O)O; Morpholide = C1CN(*)CCO1; NMeA = CN[C@@H](C)C(=O)O; Ac5c = NC1(C(=O)O)CCCC1; Aze = O=C(O)[C@@H]1CCN1; X45 = C1CCC(*)OC1; Sar = CNCC(=O)O
Columns and labels:
[1] = molecular target: GDP-bound NRAS wild-type protein (Homo sapiens, UniProt P01111); experiment: Binding to NRAS by surface plasmon resonance (SPR), Single Cycle Kinetics
[2] = molecular target: GDP-bound HRAS wild-type protein (Homo sapiens, UniProt P01112); experiment: Binding to HRAS by surface plasmon resonance (SPR), Single Cycle Kinetics
[3] = KD ratio, GDP-bound NRAS wild-type vs GDP-bound KRAS wild-type, SPR
[4] = KD ratio, GDP-bound HRAS wild-type vs GDP-bound KRAS wild-type, SPR
[5] = SPR, GDP-bound wild-type proteins

Chain of GDP-bound HRAS wild-type protein (P01112 whole entry): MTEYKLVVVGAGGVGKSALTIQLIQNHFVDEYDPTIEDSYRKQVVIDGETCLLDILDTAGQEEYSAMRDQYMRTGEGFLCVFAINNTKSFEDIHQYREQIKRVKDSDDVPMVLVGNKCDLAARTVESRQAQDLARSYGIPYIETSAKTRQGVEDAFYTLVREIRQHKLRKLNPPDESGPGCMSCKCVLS
Chain of GDP-bound NRAS wild-type protein (P01111 whole entry): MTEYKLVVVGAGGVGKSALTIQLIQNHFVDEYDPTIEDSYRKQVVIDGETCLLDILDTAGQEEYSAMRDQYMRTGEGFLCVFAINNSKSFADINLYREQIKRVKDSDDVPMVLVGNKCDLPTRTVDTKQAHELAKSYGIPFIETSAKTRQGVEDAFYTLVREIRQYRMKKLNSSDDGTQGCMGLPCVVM

CCO[C@@H]1C[C@H]2C(=O)NC3(CCCC3)C(=O)N(C)[C@@H](C3CCCC3)C(=O)N(C)[C@H](C(=O)N3CCOCC3)CC(=O)N(C)[C@@H](CC(C)C)C(=O)N[C@@H]([C@@H](C)CC)C(=O)N(C)CC(=O)N(C)[C@H]3C[C@@H](C)CCN(C3=O)[C@@H](Cc3ccc(C(F)(F)F)cc3)C(=O)N(C)CC(=O)N[C@@H](CCc3cc(F)c(C(F)(F)F)c(F)c3)C(=O)N2C1 [PP1024]
NRAS/KRAS (ratio of KD value with respect to NRAS to KD value with respect to KRAS) [1, 3]: B (a compound having 3 or more and less than 10 is denoted as B) | HRAS/KRAS (ratio of KD value with respect to HRAS to KD value with respect to KRAS) [2, 4]: B (a compound having 3 or more and less than 10 is denoted as B)

CCO[C@@H]1C[C@H]2C(=O)NC3(CC(C)(C)C3)C(=O)N(C)[C@@H](C3CCCC3)C(=O)N(C)[C@H](C3CCC3)CC(=O)N(C)[C@@H](CC3CC3)C(=O)N[C@@H]([C@@H](C)CC)C(=O)N(C)CC(=O)N(C)[C@H]3C/C=C\CCN(C3=O)[C@@H](Cc3ccc(C(F)(F)F)cc3)C(=O)N(C)CC(=O)N[C@@H](CCc3cc(F)c(C(F)(F)F)c(F)c3)C(=O)N2C1 [PP1635]
NRAS/KRAS (ratio of KD value for NRAS to KD value for KRAS) [1, 3]: B (a compound having 3 or more and less than 10 is denoted as B) | HRAS/KRAS (ratio of KD value for HRAS to KD value for KRAS) [2, 4]: A (a compound having 10 or more and less than 20 is denoted as A)

CCO[C@@H]1C[C@H]2C(=O)NC3(CCC3)C(=O)N(C)[C@@H](C3CCCC3)C(=O)N(C)[C@H](C(=O)N3CCOCC3)CC(=O)N(C)[C@@H](Cc3ccc(C#N)cc3)C(=O)N[C@@H]([C@@H](C)CC)C(=O)N(C)CC(=O)N(C)[C@H]3CCCCCN(C3=O)[C@@H](Cc3ccc(F)cc3)C(=O)N(C)CC(=O)N[C@@H](CCc3cc(F)c(C(F)(F)F)c(F)c3)C(=O)N2C1 [PP1187]
NRAS/KRAS (ratio of KD value with respect to NRAS to KD value with respect to KRAS) [1, 3]: B (a compound having 3 or more and less than 10 is denoted as B) | HRAS/KRAS (ratio of KD value with respect to HRAS to KD value with respect to KRAS) [2, 4]: B (a compound having 3 or more and less than 10 is denoted as B)

CC[C@H](C)[C@@H]1NC(=O)[C@H](CC(C)C)N(C)C(=O)C[C@@H](C(=O)N2CCOCC2)N(C)C(=O)[C@H](C2CCCC2)N(C)C(=O)C2(CCCC2)NC(=O)[C@@H]2CCCN2C(=O)[C@H](CCc2ccc(C(F)(F)F)c(Cl)c2)NC(=O)CN(C)C(=O)[C@H](Cc2ccc(OC(F)(F)F)cc2)N2C/C=C\CC[C@@H](C2=O)N(C)C(=O)CN(C)C1=O [PP0610]
NRAS/KRAS (ratio of KD value with respect to GDP-bound NRAS wild-type protein to KD value with respect to KRAS) ([1]; SPR): B (a compound having 3 or more and less than 10 is denoted as B) | HRAS/KRAS (ratio of KD value with respect to GDP-bound HRAS wild-type protein to KD value with respect to KRAS) ([2]; SPR): B (a compound having 3 or more and less than 10 is denoted as B)

CCO[C@@H]1C[C@H]2C(=O)NC3(CCC3)C(=O)N(C)[C@@H](C3CCCC3)C(=O)N(C)[C@H](C(=O)N(C)C)CC(=O)N(C)[C@@H](CC)C(=O)N[C@@H]([C@@H](C)CC)C(=O)N3C[C@H](OCC)C[C@H]3C(=O)N(C)[C@H]3C/C=C\CCN(C3=O)[C@@H](Cc3ccc(C(F)(F)F)cc3)C(=O)N(C)CC(=O)N[C@@H](CCc3cc(F)c(C(F)(F)F)c(F)c3)C(=O)N2C1 [PP1057]
NRAS/KRAS (ratio of KD value with respect to NRAS to KD value with respect to KRAS) [1, 3]: A (a compound having 10 or more and less than 20 is denoted as A) | HRAS/KRAS (ratio of KD value with respect to HRAS to KD value with respect to KRAS) [2, 4]: B (a compound having 3 or more and less than 10 is denoted as B)

CC[C@H](C)[C@@H]1NC(=O)[C@H](COC)N(C)C(=O)C[C@@H](C(=O)N(C)C)N(C)C(=O)[C@H](C2CCCC2)N(C)C(=O)C2(CC(C)(C)C2)NC(=O)[C@@H]2C[C@@H](OC3CCC3)CN2C(=O)[C@H](CCc2cc(F)c(C(F)(F)F)c(F)c2)NC(=O)CN(C)C(=O)[C@H](CC2CCCCC2)N2CC/C=C\C[C@@H](C2=O)N(C)C(=O)CN(C2CC2)C1=O [PP2618]
NRAS/KRAS (ratio of KD value with respect to GDP-bound NRAS wild-type protein to KD value with respect to KRAS) ([1]; class symbols): A (a compound having 10 or more and less than 20 is denoted as A) | HRAS/KRAS (ratio of KD value with respect to GDP-bound HRAS wild-type protein to KD value with respect to KRAS) ([2]; class symbols): A (a compound having 10 or more and less than 20 is denoted as A)

CCO[C@@H]1C[C@H]2C(=O)NC3(CCCC3)C(=O)N(C)[C@@H](C3CCCC3)C(=O)N(C)[C@H](C(=O)N(C)C)CC(=O)N(C)[C@@H](CC(C)C)C(=O)N[C@@H]([C@@H](C)CC)C(=O)N(C)CC(=O)N(C)[C@H]3CCCCCN(C3=O)[C@@H](Cc3ccc(C(F)(F)F)cc3)C(=O)N(C)CC(=O)N[C@@H](CCc3cc(F)c(C(F)(F)F)c(F)c3)C(=O)N2C1 [PP0468]
NRAS/KRAS (ratio of KD value with respect to GDP-bound NRAS wild-type protein to KD value with respect to KRAS) ([1]; SPR): B (a compound having 3 or more and less than 10 is denoted as B) | HRAS/KRAS (ratio of KD value with respect to GDP-bound HRAS wild-type protein to KD value with respect to KRAS) ([2]; SPR): B (a compound having 3 or more and less than 10 is denoted as B)

CCCN1C(=O)CN(C)C(=O)CNC(=O)[C@H]([C@@H](C)CC)NC(=O)[C@H](CC(C)C)N(C)C(=O)C[C@@H](C(=O)N(C)C)NC(=O)[C@H](C2CCCC2)N(C)C(=O)C2(CCCC2)NC(=O)[C@@H]2CC(F)(F)CN2C(=O)[C@H](CCc2ccc(C(F)(F)F)c(Cl)c2)NC(=O)CN(C)C(=O)[C@@H]1Cc1ccc(C(F)(F)F)cc1 [PP0363] ([NMeL]IG[Sar][NPrPhe(4-CF3)][Sar][hPhe(3-Cl-4-CF3)][Pro(4,4-F2)][Ac5c][NMeGly(cPent)]D-NMe2; lactam N-11)
NRAS/KRAS (ratio of KD for GDP-bound NRAS wild-type to KD for KRAS) ([1]; SPR): B (a compound having 3 or more and less than 10 is denoted as B) | HRAS/KRAS (ratio of KD for GDP-bound HRAS wild-type to KD for KRAS) ([2]; SPR): C (A compound having a KD ratio of 0.1 or more and less than 3 is denoted as C)

CC[C@H](C)[C@@H]1NC(=O)[C@H](CC(C)C)N(C)C(=O)C[C@@H](C(=O)N2CCOCC2)N(C)C(=O)[C@H](C2CCCC2)N(C)C(=O)C2(CCCC2)NC(=O)[C@@H]2C[C@@H](OC3CCCCO3)CN2C(=O)[C@H](CCc2ccc(C(F)(F)F)c(Cl)c2)NC(=O)CN(C)C(=O)[C@H](Cc2ccc(C)cc2)N(CC)C(=O)[C@@H]2CCN2C(=O)[C@H](C)N(C)C1=O (stereo partly shown) [PP0067] ([NMeL]I[NMeA][Aze][NEtPhe(4-Me)][Sar][hPhe(3-Cl-4-CF3)][Hyp](X45)[Ac5c][NMeGly(cPent)][NMeD]-Morpholide; lactam N-11)
NRAS/KRAS (ratio of KD for GDP-bound NRAS wild-type to KD for KRAS) ([1]; SPR): C (A compound having a KD ratio of 0.1 or more and less than 3 is denoted as C) | HRAS/KRAS (ratio of KD for GDP-bound HRAS wild-type to KD for KRAS) ([2]; SPR): C (A compound having a KD ratio of 0.1 or more and less than 3 is denoted as C)

CCOC[C@H]1C(=O)N[C@@H]([C@@H](C)OCC)C(=O)N(C)CC(=O)N(C)[C@H]2C/C=C\CCN(C2=O)[C@@H](Cc2ccc(C)cc2)C(=O)N(C)CC(=O)N[C@@H](CCc2cc(F)c(C(F)(F)F)c(F)c2)C(=O)N2C[C@@H](C)C[C@H]2C(=O)NC2(CC(C)(C)C2)C(=O)N(C)[C@@H](C2CCCC2)C(=O)N(C)[C@H](C(=O)N(C)CC)CC(=O)N1C [PP2422]
NRAS/KRAS (ratio of KD value with respect to NRAS to KD value with respect to KRAS) ([1]; SPR, GDP-bound NRAS wild-type vs GDP-bound KRAS wild-type): A (a compound having 10 or more and less than 20 is denoted as A) | HRAS/KRAS (ratio of KD value with respect to HRAS to KD value with respect to KRAS) ([2]; SPR, GDP-bound HRAS wild-type vs GDP-bound KRAS wild-type): A (a compound having 10 or more and less than 20 is denoted as A)

C#CC[C@H]1C(=O)N[C@@H]([C@@H](C)CC)C(=O)N(C)CC(=O)N(C)[C@H]2C/C=C\CCN(C2=O)[C@@H](Cc2ccc(C)cc2)C(=O)N(C)CC(=O)N[C@@H](CCc2cc(F)c(C(F)(F)F)c(F)c2)C(=O)N2CC3(CC3)C[C@H]2C(=O)NC2(CC(C)(C)C2)C(=O)N(C)[C@@H](C2CCCC2)C(=O)N(C)[C@H](C(=O)N(C)C)CC(=O)N1C [PP2978]
NRAS/KRAS (ratio of KD value with respect to GDP-bound NRAS wild-type protein to KD value with respect to KRAS) [1, 5]: A (a compound having 10 or more and less than 20 is denoted as A) | HRAS/KRAS (ratio of KD value with respect to GDP-bound HRAS wild-type protein to KD value with respect to KRAS) [2, 5]: A (a compound having 10 or more and less than 20 is denoted as A)

CCO[C@@H]1C[C@H]2C(=O)NC3(CC(C)(C)C3)C(=O)N(C)[C@@H](C3CCCCC3)C(=O)N(C)[C@H](C(=O)N(C)C)CC(=O)N(C)[C@@H](COC)C(=O)N[C@@H]([C@@H](C)CC)C(=O)N(C)CC(=O)N(C)[C@H]3C/C=C\CCN(C3=O)[C@@H](Cc3ccc(C)cc3)C(=O)N(C)CC(=O)N[C@@H](CCc3cc(F)c(C(F)(F)F)c(F)c3)C(=O)N2C1 [PP2659]
NRAS/KRAS (ratio of KD value with respect to GDP-bound NRAS wild-type protein to KD value with respect to KRAS) ([1]; class symbols): A (a compound having 10 or more and less than 20 is denoted as A) | HRAS/KRAS (ratio of KD value with respect to GDP-bound HRAS wild-type protein to KD value with respect to KRAS) ([2]; class symbols): A (a compound having 10 or more and less than 20 is denoted as A)

CCCN1C(=O)CN(C)C(=O)CNC(=O)[C@H]([C@@H](C)CC)NC(=O)[C@H](CC(C)C)N(C)C(=O)C[C@@H](C(=O)N(C)C)N(C)C(=O)[C@H](C2CCCC2)N(C)C(=O)C2(CCCC2)NC(=O)[C@@H]2CCCN2C(=O)[C@H](CCc2ccc(C(F)(F)F)c(Cl)c2)NC(=O)CN(C)C(=O)[C@@H]1Cc1ccc(C(F)(F)F)cc1 [PP0417] ([NMeL]IG[Sar][NPrPhe(4-CF3)][Sar][hPhe(3-Cl-4-CF3)]P[Ac5c][NMeGly(cPent)][NMeD]-NMe2; lactam N-11)
NRAS/KRAS (ratio of KD value with respect to GDP-bound NRAS wild-type protein to KD value with respect to KRAS) ([1]; SPR): B (a compound having 3 or more and less than 10 is denoted as B) | HRAS/KRAS (ratio of KD value with respect to GDP-bound HRAS wild-type protein to KD value with respect to KRAS) ([2]; SPR): C (A compound having a KD ratio of 0.1 or more and less than 3 is denoted as C)

CCO[C@@H]1C[C@H]2C(=O)NC3(CCC3)C(=O)N(C)[C@@H](C3CCCC3)C(=O)N(C)[C@H](C(=O)N(C)C)CC(=O)N(C)[C@@H](CC)C(=O)N[C@@H]([C@@H](C)CC)C(=O)N(C)CC(=O)N(C)[C@H]3CCCCN(C3=O)[C@@H](Cc3ccc(C(F)(F)F)cc3)C(=O)N(C)CC(=O)N[C@@H](CCc3cc(Cl)c(C(F)(F)F)c(Cl)c3)C(=O)N2C1 [PP0985]
NRAS/KRAS (ratio of KD value with respect to NRAS to KD value with respect to KRAS) [1, 3]: C (A compound having a KD ratio of 0.1 or more and less than 3 is denoted as C) | HRAS/KRAS (ratio of KD value with respect to HRAS to KD value with respect to KRAS) [2, 4]: C (A compound having a KD ratio of 0.1 or more and less than 3 is denoted as C)
